# Patent publication US20100298141A1, “SUBSTITUTED PYRIDINE N-OXIDE HERBICIDES” (E. I. DU PONT DE NEMOURS AND COMPANY, priority 2007, published 2010)
# Legend:
# redroot pigweed = experiment: Test A pre-/postemergence greenhouse test; type: in vivo, Amaranthus retroflexus; settings: for Pigweed plant response rating: 0 to 100 scale
# Outline: (§1)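 Two application timings were run side by side in the greenhouse. Before emergence, compound went onto the soil surface of loam–sand pots as a directed spray; after emergence, plants at 2–10 cm and the one- to two-leaf stage were treated. Visual injury versus controls was rated at approximately day ten.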
# giant foxtail = experiment: Test C pre-/postemergence test; type: in vivo, Setaria faberii; settings: for Plant response rating, Foxtail, Giant: scale 0 to 100, 0 no effect, 100 complete control
# Outline: (§2)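 Test chemicals were formulated with surfactant in a non-phytotoxic solvent and sprayed both on freshly planted seeds (preemergence) and on 1- to 4-leaf plants of 2–18 cm (postemergence). Flooded-paddy pots received compound directly into 3 cm of standing water, maintained for the test.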
# woolly cupgrass = experiment: Test C pre-/postemergence test; type: in vivo, Eriochloa villosa; settings: for Plant response rating, Cupgrass, Woolly: scale 0 to 100, 0 no effect, 100 complete control
# Outline: as §2
# johnsongrass = experiment: Test C pre-/postemergence test; type: in vivo, Sorghum halepense; settings: for Plant response rating, Johnsongrass: scale 0 to 100, 0 no effect, 100 complete control
# Outline: as §2
# velvetleaf [1] = experiment: Test C pre-/postemergence test; type: in vivo, Abutilon theophrasti; settings: Postemergence; for Plant response rating, Velvetleaf: scale 0 to 100, 0 no effect, 100 complete control
# Outline: as §2
# corn = experiment: Test C pre-/postemergence test; type: in vivo, Zea mays; settings: for Plant response rating, Corn: scale 0 to 100, 0 no effect, 100 complete control
# Outline: as §2
# rice = experiment: Test C flooded paddy test; type: in vivo, Oryza sativa; settings: Flood
# Outline: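 Compound was added to standing water 3 cm above soil, flood maintained, and plants held in a greenhouse before visual scoring against controls at 13 to 15 days.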
# catchweed bedstraw = experiment: Test C pre-/postemergence test; type: in vivo, Galium aparine
# Outline: as §2
# downy brome = experiment: Test C pre-/postemergence test; type: in vivo, Bromus tectorum; settings: for Plant response rating, Bromegrass, Downy: scale 0 to 100, 0 no effect, 100 complete control
# Outline: as §2
# wheat [2] = experiment: Test C pre-/postemergence test; type: in vivo, Triticum aestivum; settings: for Wheat plant response rating: preemergence, scale 0 (no effect) to 100 (complete control); for Plant response rating, Wheat: scale 0 to 100, 0 no effect, 100 complete control
# Outline: as §2
# wild oat = experiment: Test C pre-/postemergence test; type: in vivo, Avena fatua; settings: for Plant response rating, Oat, Wild: scale 0 to 100, 0 no effect, 100 complete control
# Outline: as §2
# eastern black nightshade = experiment: Test C pre-/postemergence test; type: in vivo, Solanum ptycanthum
# Outline: as §2
# morningglory = experiment: Test C pre-/postemergence test; type: in vivo, Ipomoea coccinea; settings: for Plant response rating, Morningglory: scale 0 to 100, 0 no effect, 100 complete control
# Outline: as §2
# wheat [3] = experiment: Test A pre-/postemergence greenhouse test; type: in vivo, Triticum aestivum; settings: for Wheat plant response rating: 0 to 100 scale
# Outline: as §1
# velvetleaf [4] = experiment: Test A pre-/postemergence greenhouse test; type: in vivo, Abutilon theophrasti; settings: for Velvetleaf plant response rating: 0 to 100 scale
# Outline: as §1
# yellow nutsedge = experiment: Test C pre-/postemergence test; type: in vivo, Cyperus esculentus; settings: for Plant response rating, Nutsedge, Yellow: scale 0 to 100, 0 no effect, 100 complete control
# Outline: as §2
# [5] = Postemergence, 125 g ai/ha, 0 is no effect, 100 is complete control
# [6] = Postemergence, 500 g ai/ha, 0 is no effect, 100 is complete control
# [7] = Preemergence, 125 g ai/ha, 0 no effect, 100 complete control
# [8] = Preemergence, 500 g ai/ha, 0 to 100 scale where 0 is no effect and 100 is complete control
# [9] = 31 g ai/ha, Preemergence, scale 0 to 100
# [10] = 62 g ai/ha, preemergence, scale 0 (no effect) to 100 (complete control)
# [11] = preemergence, 125 g ai/ha, scale 0 (no effect) to 100 (complete control)
smiles,measurement,setting,value
Cc1cc[n+]([O-])c([S+]([O-])Cc2c(C(F)(F)F)nn(C)c2OC(F)F)c1 (stereo not drawn) [Compound 1],Pigweed plant response rating,redroot pigweed; [5],100
same,Pigweed plant response rating,redroot pigweed; [6],100
same,Pigweed plant response rating,redroot pigweed; [7],100
same,"Plant response rating, Pigweed",redroot pigweed; [8],100
same,"Foxtail, Giant plant response rating",giant foxtail; [9],60
same,"Foxtail, Giant plant response rating",giant foxtail; [10],70
same,"Plant response rating (0 to 100), Foxtail, Giant","giant foxtail; Postemergence, 31 g ai/ha",0
same,"Plant response rating, Foxtail, Giant","giant foxtail; Postemergence, 62 g ai/ha",0
same,"Plant response rating, Foxtail, Giant","giant foxtail; Postemergence, 125 g ai/ha",45
same,"Plant response rating, Foxtail, Giant","giant foxtail; Postemergence, 250 g ai/ha",60
same,"Plant response rating (0 to 100), Foxtail, Giant","giant foxtail; Preemergence, 250 g ai/ha",100
same,"Foxtail, Giant plant response rating",giant foxtail; [11],100
same,"Cupgrass, Woolly plant response rating",woolly cupgrass; [9],40
same,"Cupgrass, Woolly plant response rating",woolly cupgrass; [10],60
same,"Plant response rating (0 to 100), Cupgrass, Woolly","woolly cupgrass; Postemergence, 31 g ai/ha",0
same,"Plant response rating, Cupgrass, Woolly","woolly cupgrass; Postemergence, 62 g ai/ha",0
same,"Plant response rating, Cupgrass, Woolly","woolly cupgrass; Postemergence, 125 g ai/ha",40
same,"Plant response rating, Cupgrass, Woolly","woolly cupgrass; Postemergence, 250 g ai/ha",70
same,"Plant response rating (0 to 100), Cupgrass, Woolly","woolly cupgrass; Preemergence, 250 g ai/ha",90
same,"Cupgrass, Woolly plant response rating",woolly cupgrass; [11],90
same,Johnsongrass plant response rating,johnsongrass; [9],80
same,Johnsongrass plant response rating,johnsongrass; [10],90
same,"Plant response rating (0 to 100), Johnsongrass","johnsongrass; Postemergence, 31 g ai/ha",0
same,"Plant response rating, Johnsongrass","johnsongrass; Postemergence, 62 g ai/ha",0
same,"Plant response rating, Johnsongrass","johnsongrass; Postemergence, 125 g ai/ha",0
same,"Plant response rating, Johnsongrass","johnsongrass; Postemergence, 250 g ai/ha",10
same,"Plant response rating (0 to 100), Johnsongrass","johnsongrass; Preemergence, 250 g ai/ha",100
same,Johnsongrass plant response rating,johnsongrass; [11],100
same,"Plant response rating (0 to 100), Velvetleaf",velvetleaf [1]; 31 g ai/ha,10
same,"Plant response rating (0 to 100), Velvetleaf",velvetleaf [1]; 62 g ai/ha,40
same,"Plant response rating, Velvetleaf",velvetleaf [1]; 125 g ai/ha,45
same,"Plant response rating, Velvetleaf",velvetleaf [1]; 250 g ai/ha,60
same,Corn plant response rating,corn; [9],50
same,Corn plant response rating,corn; [10],60
same,"Plant response rating (0 to 100), Corn","corn; Postemergence, 31 g ai/ha",0
same,"Plant response rating, Corn","corn; Postemergence, 62 g ai/ha",0
same,"Plant response rating, Corn","corn; Postemergence, 125 g ai/ha",0
same,"Plant response rating, Corn","corn; Postemergence, 250 g ai/ha",5
same,"Plant response rating (0 to 100), Corn","corn; Preemergence, 250 g ai/ha",98
same,Corn plant response rating,corn; [11],95
same,"Plant response rating, Rice","rice; 31 g ai/ha, scale 0 to 100 (0 no effect, 100 complete control)",0
same,"Plant response rating, Rice","rice; 62 g ai/ha, scale 0 to 100, 0 no effect, 100 complete control, 13 to 15 days",0
same,"Plant response rating, Rice","rice; 125 g ai/ha, scale 0 to 100, 0 no effect, 100 complete control, 13 to 15 days",80
same,"Plant response rating, Rice","rice; 250 g ai/ha, scale 0 to 100 (0 no effect, 100 complete control)",80
same,Galium plant response rating,catchweed bedstraw; [9],70
same,Galium plant response rating,catchweed bedstraw; [10],85
same,"Plant response rating (0 to 100), Galium","catchweed bedstraw; Preemergence, 250 g ai/ha",98
same,Galium plant response rating,catchweed bedstraw; [11],98
same,"Bromegrass, Downy plant response rating",downy brome; [9],0
same,"Bromegrass, Downy plant response rating",downy brome; [10],50
same,"Plant response rating (0 to 100), Bromegrass, Downy","downy brome; Postemergence, 31 g ai/ha",0
same,"Plant response rating, Bromegrass, Downy","downy brome; Postemergence, 62 g ai/ha",0
same,"Plant response rating, Bromegrass, Downy","downy brome; Postemergence, 125 g ai/ha",0
same,"Plant response rating, Bromegrass, Downy","downy brome; Postemergence, 250 g ai/ha",0
same,"Plant response rating (0 to 100), Bromegrass, Downy","downy brome; Preemergence, 250 g ai/ha",100
same,"Bromegrass, Downy plant response rating",downy brome; [11],100
same,Wheat plant response rating,wheat [2]; 62 g ai/ha,30
same,"Plant response rating (0 to 100), Wheat","wheat [2]; Postemergence, 31 g ai/ha",0
same,"Plant response rating (0 to 100), Wheat","wheat [2]; Postemergence, 62 g ai/ha",0
same,"Plant response rating, Wheat","wheat [2]; Postemergence, 125 g ai/ha",0
same,"Plant response rating, Wheat","wheat [2]; Postemergence, 250 g ai/ha",0
same,"Plant response rating (0 to 100), Wheat","wheat [2]; Preemergence, 250 g ai/ha",95
same,Wheat plant response rating,wheat [2]; 125 g ai/ha,60
same,"Oat, Wild plant response rating",wild oat; [9],50
same,"Oat, Wild plant response rating",wild oat; [10],85
same,"Plant response rating (0 to 100), Oat, Wild","wild oat; Postemergence, 31 g ai/ha",0
same,"Plant response rating, Oat, Wild","wild oat; Postemergence, 62 g ai/ha",0
same,"Plant response rating, Oat, Wild","wild oat; Postemergence, 125 g ai/ha",0
same,"Plant response rating, Oat, Wild","wild oat; Postemergence, 250 g ai/ha",0
same,"Plant response rating (0 to 100), Oat, Wild","wild oat; Preemergence, 250 g ai/ha",100
same,"Oat, Wild plant response rating",wild oat; [11],95
same,Nightshade plant response rating,eastern black nightshade; [9],70
same,Nightshade plant response rating,eastern black nightshade; [10],100
same,"Plant response rating (0 to 100), Nightshade","eastern black nightshade; Preemergence, 250 g ai/ha",100
same,Nightshade plant response rating,eastern black nightshade; [11],100
same,Morningglory plant response rating,morningglory; [9],85
same,Morningglory plant response rating,morningglory; [10],100
same,"Plant response rating (0 to 100), Morningglory","morningglory; Postemergence, 31 g ai/ha",40
same,"Plant response rating, Morningglory","morningglory; Postemergence, 62 g ai/ha",40
same,"Plant response rating, Morningglory","morningglory; Postemergence, 125 g ai/ha",45
same,"Plant response rating, Morningglory","morningglory; Postemergence, 250 g ai/ha",75
same,"Plant response rating (0 to 100), Morningglory","morningglory; Preemergence, 250 g ai/ha",100
same,Morningglory plant response rating,morningglory; [11],100
same,Wheat plant response rating,wheat [3]; [5],70
same,Wheat plant response rating,wheat [3]; [6],70
same,Wheat plant response rating,wheat [3]; [7],60
same,"Plant response rating, Wheat",wheat [3]; [8],90
same,Velvetleaf plant response rating,velvetleaf [4]; [5],50
same,Velvetleaf plant response rating,velvetleaf [4]; [6],70
same,Velvetleaf plant response rating,velvetleaf [4]; [7],30
same,"Plant response rating, Velvetleaf",velvetleaf [4]; [8],100
same,"Nutsedge, Yellow plant response rating",yellow nutsedge; [9],0
same,"Nutsedge, Yellow plant response rating",yellow nutsedge; [10],95
same,"Plant response rating (0 to 100), Nutsedge, Yellow","yellow nutsedge; Postemergence, 31 g ai/ha",0
same,"Plant response rating, Nutsedge, Yellow","yellow nutsedge; Postemergence, 62 g ai/ha",0
same,"Plant response rating, Nutsedge, Yellow","yellow nutsedge; Postemergence, 125 g ai/ha",0
same,"Plant response rating, Nutsedge, Yellow","yellow nutsedge; Postemergence, 250 g ai/ha",0
same,"Plant response rating (0 to 100), Nutsedge, Yellow","yellow nutsedge; Preemergence, 250 g ai/ha",100
same,"Nutsedge, Yellow plant response rating",yellow nutsedge; [11],100
